The source of these data is patent publication US20110294726A1, “ANTIBIOTIC THERAPY TO REDUCE THE LIKELIHOOD OF DEVELOPING POST-INFECTIOUS IRRITABLE BOWEL SYNDROME” (CEDARS-SINAI MEDICAL CENTER, priority 2009, published 2011).

Structures are written as SMILES.

The test system of test [1] is C. jejuni 81-176. The experiment in a line: Determination of a post-infectious phenotype (stool form, % stool weight) 3 months after C. jejuni clearance. The format is in vivo, Male Sprague-Dawley rats. On the procedure:
Male Sprague-Dawley rats (n=108) (200g) were quarantined for 10 days. Subsequently, fresh stool was collected by stroking the anus. Stool was cultured for C. jejuni on Campylobacter agar (BD Diagnostics, Franklin Lakes, N.J.). This was conducted to confirm the absence of infection or colonization of animals with C. jejuni prior to starting the study. […] In the first group (n=54), the rats were gavaged with 1 mL of a 5% solution of bicarbonate. This was given to acutely reduce gastric acidity. Subsequently, the rats were gavaged with a 1 mL suspension of 10^8 cfu/mL C. jejuni 81-176 in Campylobacter broth (C+/R− group). In the second group (n=54), the rats were gavaged with a 1 mL solution of rifaximin (200 mg) (C+/R+ group). The following day, the C+/R+ group received 3 sequential gavages. The first was another 1 mL dose of rifaximin. One hour later, they were gavaged with a 1 mL solution of 5% bicarbonate followed by a third gavage consisting of a 1 mL suspension of 10^8 cfu/mL C. jejuni 81-176 in Campylobacter broth. The following day, the C+/R+ group received a third and final gavage of 200 mg of rifaximin. After C. jejuni clearance was determined, the rats were housed for an additional 3 months (90 days). At 90 days, fresh stool was collected for 3 consecutive days. The stool was graded for consistency. To do this, a modified Bristol-like stool score was used. In this score, stool was graded as normal (1), soft and poorly formed (2), or watery (3). The stool was then weighed and air dried for 5 days followed by oven drying at 160° C. for 1 hour. The stool was reweighed and a % stool wet weight was determined. After completion of the study, the rats were euthanized by CO2 asphyxiation, weighed, and a laparotomy was performed. During the laparotomy, predefined segments of duodenum, jejunum, ileum, left colon, and rectum were resected, as previously described (12). Subsequently, the contents of each segment were cultured for the presence of C. jejuni. At the end of 3 months, the stool form for 3 days was averaged and then the two groups were compared. In another analysis, the number of days with normal stool in 3 days was determined and compared between groups. Finally, the variance in stool form over 3 days was also determined and compared between groups. The comparison was done by Wilcoxon rank-sum test.

Another test concerns Shigella. As to conditions: humans, recent study (16); cited from earlier work.
Test [2] deals with C. jejuni 81-176. The experiment in a line: Tracking the acute colonization with C. jejuni in stool of gavaged rats. The format is in vivo, Male Sprague-Dawley rats. As to the method: Male Sprague-Dawley rats (n=108) (200g) were quarantined for 10 days. Subsequently, fresh stool was collected by stroking the anus. Stool was cultured for C. jejuni on Campylobacter agar (BD Diagnostics, Franklin Lakes, N.J.). This was conducted to confirm the absence of infection or colonization of animals with C. jejuni prior to starting the study. […] In the first group (n=54), the rats were gavaged with 1 mL of a 5% solution of bicarbonate. This was given to acutely reduce gastric acidity. Subsequently, the rats were gavaged with a 1 mL suspension of 10^8 cfu/mL C. jejuni 81-176 in Campylobacter broth (C+/R− group). In the second group (n=54), the rats were gavaged with a 1 mL solution of rifaximin (200 mg) (C+/R+ group). The following day, the C+/R+ group received 3 sequential gavages. The first was another 1 mL dose of rifaximin. One hour later, they were gavaged with a 1 mL solution of 5% bicarbonate followed by a third gavage consisting of a 1 mL suspension of 10^8 cfu/mL C. jejuni 81-176 in Campylobacter broth. The following day, the C+/R+ group received a third and final gavage of 200 mg of rifaximin. After completion of the gavage, fresh stool was collected daily from all rats (both groups) and cultured for the presence of C. jejuni on Campylobacter agar. The number of days to first detectable C. jejuni in stool was recorded. Once colonization was noted, daily stool was cultured until 2 consecutive days with no detectable C. jejuni was observed. This was recorded as the time to C. jejuni clearance. In the post-infectious phase, the time to initial colonization, time for clearance and total duration of shedding were determined and compared between the C+/R− and C+/R+ groups. This was compared by Wilcoxon rank-sum test.

On to `CO[C@H]1/C=C/O[C@@]2(C)Oc3c(C)c(O)c4c(O)c(c5c(nc6cc(C)ccn65)c4c3C2=O)NC(=O)/C(C)=C\C=C\[C@H](C)[C@H](O)[C@@H](C)[C@@H](O)[C@@H](C)[C@H](OC(C)=O)[C@@H]1C` [rifaximin], for which the “Average % of stool dry weight” value in the test on C. jejuni 81-176 [1] (3 months after clearance, 3 day average, P NS) is on record as 61.1 +/− 3.8%. Also, the “Daily variability of Dry Weight” value in the test with C. jejuni 81-176 [1] (3 months after clearance, over 3 days, P<0.01) is recorded as 4.1 +/− 2.3. Further, in the test with C. jejuni 81-176 [1] (C+/R+ versus C+/R−, 3 months after clearance), the “Number of bowel movements normal in form out of 3 days (FIG. 2, in words)” value is listed as “closer to having perfectly normal bowel function”. For the same compound, the “Daily Variability of Stool Consistency” value in the test with C. jejuni 81-176 [1] (over 3 days, 3 months after clearance, P<0.01) was “.24 +/− 0.5”. Also, the “Long term effects of C. jejuni on the bowel (in words)” value in the test on C. jejuni 81-176 [1] (rifaximin prophylaxis, stool form and % wet weight) is given as “reduced the long term effects of C. jejuni on the bowel”. The “Average Stool Consistency (Based on Bristol Stool Scale)” value in the test with C. jejuni 81-176 [1] (score 1 normal, 2 soft and poorly formed, 3 watery, 3 day average, 3 months after clearance, P<0.00001) is reported as 1.1 +/− 0.3. Also, in the test with Shigella, the “Prevention of illness by prophylaxis of a Shigella infection (in words)” value is given as “able to prevent illness”. Besides, the Longest colonization in the test with C. jejuni 81-176 [2] (C+/R+ group) came out at 21 days. The “Rats with at least one day of detectable C. jejuni in stool (percent)” value with C. jejuni 81-176 [2] (C+/R+ group of 54 rats, P=0.016 vs C+/R−) is 98%. In addition, in the test with C. jejuni 81-176 [2] (of 54 rats in the C+/R+ group, P=0.016 vs C+/R−), the “Rats with at least one day of detectable C. jejuni in stool (number)” value was 53 rats. The “Detection of C. jejuni in stool in the acute phase (in words)” value with C. jejuni 81-176 [2] (rifaximin prophylaxis, rats) is on record as “did not prevent C. jejuni from being detected in stool”. The “Time to first detectable C. jejuni” value with C. jejuni 81-176 [2] (stool culture, number of days after gavage, rifaximin 200 mg gavage on 3 days around inoculation, P<0.0001 vs C+/R−) is given as 1.3 ± 0.4.
